This test concerns the target T1, glucocorticoid receptor (Homo sapiens, UniProt P04150).
T1 construct: expressed in transfected cells
T1 sequence (P04150 524-758 limits assumed): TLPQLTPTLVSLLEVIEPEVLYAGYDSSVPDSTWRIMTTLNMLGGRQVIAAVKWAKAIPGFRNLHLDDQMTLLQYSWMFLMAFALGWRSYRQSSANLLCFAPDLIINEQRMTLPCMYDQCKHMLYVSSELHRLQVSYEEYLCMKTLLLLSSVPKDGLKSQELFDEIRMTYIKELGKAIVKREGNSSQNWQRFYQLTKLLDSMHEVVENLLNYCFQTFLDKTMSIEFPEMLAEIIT
Briefly: Agonistic mode of action on the glucocorticoid receptor (CHO-Gal4/GR luciferase reporter cell line). In kind it is cell-based. Conditions: range class observed in the agonistic assay or the antagonistic assay (CHO-Gal4/GR reporter cells); table does not say which mode applies per example. In outline: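 CHO cells stably carrying GAL4 DBD–GR ligand-binding-domain fusion and GAL4-UAS firefly luciferase reporter, 5000 cells/well grown 24 h, then compounds added in Opti-MEM at 8 half-log concentrations from 10 μM to 0.003 μM (0.5% DMSO), quadruplicates. Agonist-induced luminescence read on FLIPR Tetra; EC50 calculated.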
On the technique in general: Reporter assays use an easily measured gene product as a stand-in for the process of interest.

For the molecule `Cc1nnc2n1-c1c(cc(F)c(-c3cccc4c3ccn4S(=O)(=O)CC3CC3)c1C(F)F)NC2(C)C` [Example 502, 8-[1-(Cyclopropyl-methylsulfonyl)-1H-indol-4-yl]-9-(difluoro-methyl)-7-fluoro-1,4,4-trimethyl-5H-[1,2,4]triazolo[4,3-a]quinoxaline], the IC50 or EC50 (agonist or antagonist mode not specified) was 0.1 to 1 µM. With `Cc1nnc2n1-c1c(cc(F)c(-c3cccc4c3ccn4C)c1C(F)F)NC2(C)C` [Example 481, 9-(Difluoro-methyl)-7-fluoro-1,4,4-trimethyl-8-(1-methyl-1H-indol-4-yl)-5H-[1,2,4]triazolo[4,3-a] quinoxaline], the IC50 or EC50 (agonist or antagonist mode not specified) lay within 0.1 to 1 µM. The figure for `Cc1nnc2n1-c1c(cc(F)c(-c3cc(F)cc4c3ccn4CC(F)(F)F)c1F)NC2(C)C` [Example 21, 7,9-difluoro-8-(6-fluoro-1-(2,2,2-trifluoroethyl)-1H-indol-4-yl)-1,4,4-trimethyl-4,5-dihydro-[1,2,4]triazolo[4,3-a]quinoxaline] is 0.1 to 1 µM; for `COc1cc2c(c(C(F)(F)F)c1-c1cccc3c1ccn3C1CC1)-n1c(C)nnc1C(C)(C)N2` [Example 523, 8-(1-Cyclopropyl-1H-indol-4-yl)-7-methoxy-1,4,4-trimethyl-9-(trifluoromethyl)-5H-[1,2,4]triazolo[4,3-a]quinoxaline] it is 0.1 to 1 µM. To `Cc1c[nH]c2c(-c3c(F)cc4c(c3C3CC3)-n3c(C)nnc3C(C)(C)N4)cccc12` [Example 463, 9-Cyclopropyl-7-fluoro-1,4,4-trimethyl-8-(3-methyl-1H-indol-7-yl)-5H-[1,2,4]triazolo[4,3-a] quinoxaline] belongs less than 0.1 µM; to `COCCn1c(C(F)(F)F)cc2c(-c3c(OC(F)F)cc4c(c3F)-n3c(C)nnc3C(C)(C)N4)cccc21` [Example 259, 7-(Difluoro-methoxy)-9-fluoro-8-[1-(2-methoxy-ethyl)-2-(trifluoromethyl)-1H-indol-4-yl]-1,4,4-trimethyl-5H-[1,2,4]triazolo[4,3-a]quinoxaline], 1 to 15 µM. To `Cc1n[nH]c2c(-c3c(F)cc4c(c3C(F)F)-n3c(C)nnc3C(C)(C)N4)cccc12` [Example 367, 9-(Difluoro-methyl)-7-fluoro-1,4,4-trimethyl-8-(3-methyl-1H-indazol-7-yl)-5H-[1,2,4]triazolo[4,3-a]quinoxaline] belongs 0.1 to 1 µM; to `Cc1nnc2n1-c1c(cc(F)c(-c3ccc(C#N)c4[nH]ccc34)c1C(F)(F)F)NC2(C)C` [Example 531, 4-[7-Fluoro-1,4,4-trimethyl-9-(trifluoromethyl)-5H-[1,2,4]triazolo[4,3-a]quinoxalin-8-yl]-1H-indole-7-carbonitrile], 0.1 to 1 µM; to `Cc1nnc2n1-c1c(cc(F)c(-c3cccc4c3cnn4S(C)(=O)=O)c1C(F)F)NC2(C)C` [Example 382, 9-(Difluoro-methyl)-7-fluoro-1,4,4-trimethyl-8-(1-methylsulfonyl-1H-indazol-4-yl)-5H-[1,2,4]triazolo[4,3-a]quinoxaline], 1 to 15 µM. With `Cc1c(-c2ccc(C#N)c3[nH]ccc23)c(F)cc2c1-n1c(C)nnc1C(C)(C)N2` [Example 534, 4-(7-Fluoro-1,4,4,9-tetramethyl-5H-[1,2,4]triazolo[4,3-a]quinoxalin-8-yl)-1H-indole-7-carbonitrile], the IC50 or EC50 (agonist or antagonist mode not specified) fell in the range of 0.1 to 1 µM. The figure for `COCCn1ccc2c(-c3c(C(F)F)cc4c(c3F)-n3c(C)nnc3C(C)(C)N4)cc(F)cc21` [Example 396, 7-(Difluoro-methyl)-9-fluoro-8-[6-fluoro-1-(2-methoxy-ethyl)-1H-indol-4-yl]-1,4,4-trimethyl-5H-[1,2,4]triazolo[4,3-a]quinoxaline] is 1 to 15 µM; for `Cc1c[nH]c2c(-c3c(F)cc4c(c3F)-n3c(Cc5ccccc5)nnc3C(C)(C)N4)cccc12` [Example 68, 1-Benzyl-7,9-difluoro-4,4-dimethyl-8-(3-methyl-1H-indol-7-yl)-5H-[1,2,4]triazolo[4,3-a]quinoxaline] it is 0.1 to 1 µM; for `COc1cc2c(c(C(F)(F)F)c1-c1cccc3c1ccn3C)-n1c(C)nnc1C(C)(C)N2` [Example 509, 7-Methoxy-1,4,4-trimethyl-8-(1-methyl-1H-indol-4-yl)-9-(trifluoromethyl)-5H-[1,2,4]triazolo[4,3-a]quinoxaline] it is 0.1 to 1 µM.

`Cc1nnc2n1-c1c(cc(F)c(-c3ccc(F)c4[nH]ccc34)c1C(F)F)NC2(C)C` [Example 496, 9-(Difluoro-methyl)-7-fluoro-8-(7-fluoro-1H-indol-4-yl)-1,4,4-trimethyl-5H-[1,2,4]triazolo[4,3-a] quinoxaline]: the IC50 or EC50 (agonist or antagonist mode not specified) was less than 0.1 µM.

With `COc1c(-c2cc(C(F)(F)F)cc3[nH]ccc23)c(F)cc2c1-n1c(C)nnc1C(C)(C)N2` [Example 474, 7-Fluoro-9-methoxy-1,4,4-trimethyl-8-[6-(trifluoromethyl)-1H-indol-4-yl]-5H-[1,2,4]triazolo[4,3-a] quinoxaline], the IC50 or EC50 (agonist or antagonist mode not specified) lay in the range of 0.1 to 1 µM.

For the molecule `CC#Cc1c[nH]c2c(-c3c(F)cc4c(c3F)-n3c(CC)nnc3C(C)(C)N4)cc(F)cc12` [Example 16, 1-ethyl-7,9-difluoro-8-(5-fluoro-3-(prop-1-yn-1-yl)-1H-indol-7-yl)-4,4-dimethyl-4,5-dihydro-[1,2,4]triazolo[4,3-a]quinoxaline], the IC50 or EC50 (agonist or antagonist mode not specified) was in the range of 0.1 to 1 µM. Regarding `CCc1nnc2n1-c1c(cc(F)c(-c3cccc4c3ccn4CCOC)c1C)NC2(C)C` [Example 299, 1-Ethyl-7-fluoro-8-[1-(2-methoxy-ethyl)-1H-indol-4-yl]-4,4,9-trimethyl-5H-[1,2,4]triazolo[4,3-a]quinoxaline], the IC50 or EC50 (agonist or antagonist mode not specified) lay within 1 to 15 µM. In turn, `COc1c(-c2cc(F)cc3c2cnn3S(C)(=O)=O)c(F)cc2c1-n1c(C)nnc1C(C)(C)N2` [Example 339, 7-Fluoro-8-(6-fluoro-1-methylsulfonyl-1H-indazol-4-yl)-9-methoxy-1,4,4-trimethyl-5H-[1,2,4]triazolo[4,3-a]quinoxaline] registered an IC50 or EC50 (agonist or antagonist mode not specified) of 0.1 to 1 µM. To `CCc1nnc2n1-c1c(cc(F)c(-c3cccc4c3cnn4C)c1C)NC2(C)C` [Example 240, 1-Ethyl-7-fluoro-4,4,9-trimethyl-8-(1-methyl-1H-indazol-4-yl)-5H-[1,2,4]triazolo[4,3-a]quinoxaline] belongs 1 to 15 µM. The figure for `COc1c(-c2cc(F)cc3c(C)c[nH]c23)c(F)cc2c1-n1c(C)nnc1C(C)(C)N2` [Example 249, 7-Fluoro-8-(5-fluoro-3-methyl-1H-indol-7-yl)-9-methoxy-1,4,4-trimethyl-5H-[1,2,4]triazolo[4,3-a]quinoxaline] is less than 0.1 µM; for `Cc1cc2c(-c3c(F)cc4c(c3F)-n3c(C)nnc3C(C)(C)N4)cc(F)cc2[nH]1` [Example 5, 7,9-difluoro-8-(6-fluoro-2-methyl-1H-indol-4-yl)-1,4,4-trimethyl-4,5-dihydro-[1,2,4]triazolo[4,3-a]quinoxaline] it is 0.1 to 1 µM.

Consider `Cc1nnc2n1-c1c(cc(Cl)c(-c3cccc4c3cnn4C)c1F)NC2(C)C` [Example 285, 7-Chloro-9-fluoro-1,4,4-trimethyl-8-(1-methyl-1H-indazol-4-yl)-5H-[1,2,4]triazolo[4,3-a]quinoxaline], for which the IC50 or EC50 (agonist or antagonist mode not specified) lay in the range of 1 to 15 µM. The figure for `Cc1ccc(-c2c(F)cc3c(c2C(F)F)-n2c(C)nnc2C(C)(C)N3)c2ccn(S(C)(=O)=O)c12` [Example 512, 9-(Difluoro-methyl)-7-fluoro-1,4,4-trimethyl-8-(7-methyl-1-methylsulfonyl-1H-indol-4-yl)-5H-[1,2,4]triazolo[4,3-a]quinoxaline] is 1 to 15 µM; for `COCCn1ccc2c(-c3c(OC(F)F)cc4c(c3C)-n3c(C)nnc3C(C)(C)N4)cccc21` [Example 336, 7-(Difluoro-methoxy)-8-[1-(2-methoxy-ethyl)-1H-indol-4-yl]-1,4,4,9-tetramethyl-5H-[1,2,4]triazolo[4,3-a]quinoxaline] it is 1 to 15 µM; for `Cc1c(-c2cccc3cc[nH]c23)c(F)cc2c1-n1c(C)nnc1C(C)(C)N2` [Example 25, 7-fluoro-8-(1H-indol-7-yl)-1,4,4,9-tetramethyl-4,5-dihydro-[1,2,4]triazolo[4,3-a]quinoxaline] it is 0.1 to 1 µM. On to `Cc1nnc2n1-c1c(cc(F)c(-c3cccc4c3ccn4C(=O)CN(C)C)c1F)NC2(C)C` [Example 223, 1-[4-(7,9-Difluoro-1,4,4-trimethyl-5H-[1,2,4]triazolo[4,3-a]quinoxalin-8-yl)-1H-indol-1-yl]-2-dimethylamino-ethanone], for which the IC50 or EC50 (agonist or antagonist mode not specified) is less than 0.1 µM.

For `COc1cc2c(c(C(F)(F)F)c1-c1cccc3c1ccn3CC(F)F)-n1c(C)nnc1C(C)(C)N2` [Example 500, 8-[1-(2,2-Difluoro-ethyl)-1H-indol-4-yl]-7-methoxy-1,4,4-trimethyl-9-(trifluoromethyl)-5H-[1,2,4]triazolo[4,3-a]quinoxaline], the IC50 or EC50 (agonist or antagonist mode not specified) lay within 0.1 to 1 µM.

`COCCn1ccc2c(-c3c(C)cc4c(c3C)-n3c(C)nnc3C(C)(C)N4)cccc21` [Example 331, 8-[1-(2-Methoxy-ethyl)-1H-indol-4-yl]-1,4,4,7,9-pentamethyl-5H-[1,2,4]triazolo[4,3-a]quinoxaline]: the IC50 or EC50 (agonist or antagonist mode not specified) was 1 to 15 µM.

The values above are taken from patent US12110293B2, “Substituted triazolo quinoxaline derivatives” (GRÜNENTHAL GMBH, priority 2018, dated 2024).
